What all share (format): physicochemical
Data set [1] in a line: Solubility of bendamustine in non-aqueous solvents. Particulars: sonication; for solubility: organic solvent or mixture, thermodynamic from solid. The method, then: Bendamustine HCl was added in 5-10 mg increments to vials containing PG, PEG 200, PEG 300, PEG 400, and PEG 600, and the mixtures were sonicated. Sonication was stopped when the solution remained turbid after 8-10 minutes of sonication.
Note: The solubility might be slightly overestimated because of the generation of heat during long sonication.

Data set [2] in a line: Solubility of bendamustine in non-aqueous solvents in the presence of cyclodextrin. Particulars: for solubility: organic solvent or mixture, thermodynamic from solid. The method, then: Bendamustine HCl was added to vials containing 50 mg of HPβCD per mL and PG, PEG 200, PEG 300, PEG 400, or PEG 600, and the mixtures were sonicated for about 8-10 minutes after each addition of bendamustine. The addition of bendamustine was stopped when the solutions remained turbid even after sonication for about 8-10 minutes.

The nature of data set [3]: Solubility of HPβCD in non-aqueous solvents. Particulars: sonicated 10 minutes. The protocol:
PG, PEG 200, PEG 300, PEG 400, and PEG 600 were added to vials containing hydroxy propyl-β-cyclodextrin (HPβCD) (50 mg) and sonicated for 10 minutes. […]

Converted amounts (≈) assume the structure as drawn. “Also recorded” adds a separate entry of the source.

Usually solubility stands for the dissolved amount per volume that the medium holds.

As for `Cn1c(CCCC(=O)O)nc2cc(N(CCCl)CCCl)ccc21` [bendamustine, 4-(5-(bis(2-chloroethyl)amino)-1-methyl-1H-benzo[d]imidazol-2-yl)butanoic acid], the solubility in data set [1] (PEG 200 (non-aqueous solvent), in PEG 200) is above 50 mg/mL; in data set [1] (PEG 300 (non-aqueous solvent), in PEG 300) it was above 50 mg/mL; in data set [1] (PEG 400 (non-aqueous solvent), in PEG 400), 25 to 30 mg/mL (≈ 69.8 to 83.7 mM); in data set [1] (PEG 600 (non-aqueous solvent), in PEG 600) it was 8 to 10 mg/mL (≈ 22.3 to 27.9 mM); in data set [1] (PG (non-aqueous solvent), in PG), above 50 mg/mL; in data set [2] (PEG 200 with 50 mg/mL HPβCD, in PEG 200 with 50 mg HPβCD per mL), 50 mg/mL. Moreover, the solubility in data set [2] (PEG 300 with 50 mg/mL HPβCD, in PEG 300 with 50 mg HPβCD per mL) is 50 mg/mL; in data set [2] (PEG 400 with 50 mg/mL HPβCD, in PEG 400 with 50 mg HPβCD per mL) it was 40 to 45 mg/mL; in data set [2] (PEG 600 with 50 mg/mL HPβCD, in PEG 600 with 50 mg HPβCD per mL), 25 to 30 mg/mL; in data set [2] (PG with 50 mg/mL HPβCD, in PG with 50 mg HPβCD per mL), 50 mg/mL. Moreover, the Solubility of bendamustine entry is given as “adequate” in data set [1] (in PEG 200); “adequate” in data set [1] (in PEG 300); “insufficient” in data set [1] (in PEG 400); “insufficient” in data set [1] (in PEG 600); “adequate” in data set [1] (in PG). The “Appearance of resulting liquid mixture” value in data set [2] (in PEG 200 with 50 mg HPβCD per mL), in data set [2] (in PEG 300 with 50 mg HPβCD per mL), in data set [2] (in PEG 400 with 50 mg HPβCD per mL), in data set [2] (in PEG 600 with 50 mg HPβCD per mL) and in data set [2] (in PG with 50 mg HPβCD per mL) was “Clear solution” in each case.
With hydroxy propyl-β-cyclodextrin [HPβCD], the “Solubility of HPβCD: Physical observation” value in data set [3] (50 mg HPβCD per mL of PEG 200) is reported as “adequate; also recorded: Clear”; in data set [3] (50 mg HPβCD per mL of PEG 300), “adequate; also recorded: Clear”; in data set [3] (50 mg HPβCD per mL of PEG 400), “insoluble; also recorded: Turbid”; in data set [3] (50 mg HPβCD per mL of PEG 600), “insoluble; also recorded: Turbid”; in data set [3] (50 mg HPβCD per mL of PG), “adequate; also recorded: Clear”.

The values are drawn from patent publication US11730815B2, “Stable liquid pharmaceutical compositions comprising bendamustine” (GOOD HEALTH, LLC, priority 2018, dated 2023).
